# According to patent US9833497B2, “Human originated EGF domain proteins and use of the same” (CHENGDU SOURCEBIO LIMITED-LIABILITY COMPANY, priority 2013, dated 2017):
# Experiments:
# Format in all cases: cell-based
# Serratia marcescens = assay: MIC against Gram-negative bacteria: Serratia marcescens; conditions: for MIC against S. marcescens: Serratia marcescens
# How it was run: (§1)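 Two-fold serial dilutions of each purified human EGF domain protein, three replicate wells per level, were combined with bacteria at a final 5×10^5 CFU/mL in LB. Cultures were shaken at 175 rpm, 37° C. The MIC was taken as the minimum concentration preventing growth.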
# Proteus vulgaris = assay: MIC against Gram-negative bacteria: Proteus vulgaris; conditions: for MIC against P. vulgaris: Proteus vulgaris
# How it was run: as §1
# E. coli BL21 = assay: MIC against Gram-negative bacteria: E. coli BL21
# How it was run: as §1
# Enterobacter cloacae = assay: MIC against Gram-negative bacteria: Enterobacter cloacae; conditions: for MIC against E. cloacae: Enterobacter cloacae
# How it was run: as §1
# E. coli DH5α = assay: Antibacterial activity: MIC and growth curve against E. coli DH5α in 96-well plate; conditions: minimal inhibitory concentration against E. coli DH5α; 96-well plate, 5×10^5 CFU/mL, 37° C., judged after 8 h
# How it was run: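 MIC taken as lowest protein level with no bacterial growth, tracked by A600 every 30 min during 37 °C, 175 rpm culture. Two-fold protein series 50-12.5 μg/mL final, triplicate wells, against 5×10^5 CFU/mL of LB-washed mid-log cells.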
# Moraxella catarrhalis = assay: MIC against Gram-negative bacteria: Moraxella catarrhalis; conditions: for MIC against M. catarrhalis: Moraxella catarrhalis
# How it was run: as §1
# Pseudomonas aeruginosa = assay: MIC against Gram-negative bacteria: Pseudomonas aeruginosa; conditions: for MIC against P. aeruginosa: Pseudomonas aeruginosa
# How it was run: as §1
# Proteus mirabilis = assay: MIC against Gram-negative bacteria: Proteus mirabilis; conditions: for MIC against P. mirabilis: Proteus mirabilis
# How it was run: as §1
# Citrobacter diversus = assay: MIC against Gram-negative bacteria: Citrobacter diversus; conditions: for MIC against C. diversus: Citrobacter diversus
# How it was run: as §1
# Klebsiella pneumonia = assay: MIC against Gram-negative bacteria: Klebsiella pneumonia; conditions: for MIC against K. pneumonia: Klebsiella pneumonia
# How it was run: as §1
# Aeromonas hydrophila = assay: MIC against Gram-negative bacteria: Aeromonas hydrophila; conditions: for MIC against A. hydrophila: Aeromonas hydrophila
# How it was run: as §1
# [1] = S. marcescens, 10 h cultivation at 37° C., 5×10^5 CFU/mL
# [2] = P. vulgaris, 10 h cultivation at 37° C., 5×10^5 CFU/mL
# [3] = E. coli BL21, 10 h cultivation at 37° C., 5×10^5 CFU/mL
# [4] = E. cloacae, 10 h cultivation at 37° C., 5×10^5 CFU/mL
# [5] = M. catarrhalis, 10 h cultivation at 37° C., 5×10^5 CFU/mL
# [6] = P. aeruginosa, 10 h cultivation at 37° C., 5×10^5 CFU/mL
# [7] = P. mirabilis, 10 h cultivation at 37° C., 5×10^5 CFU/mL
# [8] = C. diversus, 10 h cultivation at 37° C., 5×10^5 CFU/mL
# [9] = K. pneumonia, 10 h cultivation at 37° C., 5×10^5 CFU/mL
# [10] = A. hydrophila, 10 h cultivation at 37° C., 5×10^5 CFU/mL
# [11] = 96-well plate, 5×10^5 CFU/mL, 37° C., 10 h
# [12] = 10 h cultivation at 37° C., 5×10^5 CFU/mL, two-fold serial dilution
# [13] = 5×10^5 CFU/mL, 10 h cultivation at 37° C.
substance,measurement,setting,value
PRT217 (DIDECTIPPYCHQRCVNTPGSFYCQCSPGFQLAANNYTCV; listed as Homo sapiens),MIC (μg/mL) S. marcescens,Serratia marcescens; [1],50 µg/mL
same,MIC (μg/mL) P. vulgaris,Proteus vulgaris; [2],12.5 µg/mL
same,MIC (μg/mL) E. coli BL21,E. coli BL21; [3],25 µg/mL
same,MIC (μg/mL) E. cloacae,Enterobacter cloacae; [4],12.5 µg/mL
same,MIC,E. coli DH5α,12.5 µg/mL
same,MIC (μg/mL) M. catarrhalis,Moraxella catarrhalis; [5],12.5 µg/mL
same,MIC (μg/mL) P. aeruginosa,Pseudomonas aeruginosa; [6],12.5 µg/mL
same,MIC (μg/mL) P. mirabilis,Proteus mirabilis; [7],12.5 µg/mL
same,MIC (μg/mL) C. diversus,Citrobacter diversus; [8],12.5 µg/mL
same,MIC (μg/mL) K. pneumonia,Klebsiella pneumonia; [9],25 µg/mL
same,MIC (μg/mL) A. hydrophila,Aeromonas hydrophila; [10],25 µg/mL
PRT1040 (AAHPCVRAPCAHGGSCRPRKEGYDCDCPLGFEGLHCQ; listed as Homo sapiens),MIC,"Serratia marcescens; S. marcescens, 10 h cultivation at 37° C.",50 µg/mL
same,MIC,"Proteus vulgaris; P. vulgaris, 10 h cultivation at 37° C.",25 µg/mL
same,MIC,"E. coli BL21; E. coli BL21, 10 h cultivation at 37° C.",50 µg/mL
same,MIC,"Enterobacter cloacae; E. cloacae, 10 h cultivation at 37° C.",50 µg/mL
same,MIC,E. coli DH5α,12.5 µg/mL
same,MIC,"Moraxella catarrhalis; M. catarrhalis, 10 h cultivation at 37° C.",25 µg/mL
same,MIC,"Pseudomonas aeruginosa; P. aeruginosa, 10 h cultivation at 37° C.",50 µg/mL
same,MIC,"Proteus mirabilis; P. mirabilis, 10 h cultivation at 37° C.",50 µg/mL
same,MIC,"Citrobacter diversus; C. diversus, 10 h cultivation at 37° C.",50 µg/mL
same,MIC,"Klebsiella pneumonia; K. pneumonia, 10 h cultivation at 37° C.",25 µg/mL
same,MIC,"Aeromonas hydrophila; A. hydrophila, 10 h cultivation at 37° C.",12.5 µg/mL
PRT1218 (DINECEREECENGGSCVNVFGSFLCNCTPGYVGQYCG; listed as Homo sapiens),MIC against S. marcescens,Serratia marcescens; [11],25 µg/mL
same,MIC against P. vulgaris,Proteus vulgaris; [11],12.5 µg/mL
same,MIC against E. coli BL21,"E. coli BL21; E. coli BL21, 96-well plate, 5×10^5 CFU/mL, 37° C., 10 h",25 µg/mL
same,MIC against E. cloacae,Enterobacter cloacae; [11],12.5 µg/mL
same,MIC,E. coli DH5α,12.5 µg/mL
same,MIC against M. catarrhalis,Moraxella catarrhalis; [11],12.5 µg/mL
same,MIC against P. aeruginosa,Pseudomonas aeruginosa; [11],25 µg/mL
same,MIC against P. mirabilis,Proteus mirabilis; [11],12.5 µg/mL
same,MIC against C. diversus,Citrobacter diversus; [11],25 µg/mL
same,MIC against K. pneumonia,Klebsiella pneumonia; [11],12.5 µg/mL
same,MIC against A. hydrophila,Aeromonas hydrophila; [11],12.5 µg/mL
PRT1056 (DQDDCAPVGCSMYARCISEGEDATCQCLKGFAGDGKLCS; listed as Homo sapiens),MIC S. marcescens,Serratia marcescens; [12],25 µg/mL
same,MIC P. vulgaris,Proteus vulgaris; [12],12.5 µg/mL
same,MIC E. coli BL21,E. coli BL21; [12],25 µg/mL
same,MIC E. cloacae,Enterobacter cloacae; [12],50 µg/mL
same,MIC,E. coli DH5α,50 µg/mL
same,MIC M. catarrhalis,Moraxella catarrhalis; [12],12.5 µg/mL
same,MIC P. aeruginosa,Pseudomonas aeruginosa; [12],12.5 µg/mL
same,MIC P. mirabilis,Proteus mirabilis; [12],50 µg/mL
same,MIC C. diversus,Citrobacter diversus; [12],50 µg/mL
same,MIC K. pneumonia,Klebsiella pneumonia; [12],25 µg/mL
same,MIC A. hydrophila,Aeromonas hydrophila; [12],12.5 µg/mL
PRT792 (YGVLCAETCQCVNGGKCYHVSGACLCEAGFAGERCE; listed as Homo sapiens),MIC (μg/mL) S. marcescens,Serratia marcescens; [1],50 µg/mL
same,MIC (μg/mL) P. vulgaris,Proteus vulgaris; [2],12.5 µg/mL
same,MIC (μg/mL) E. coli BL21,E. coli BL21; [3],50 µg/mL
same,MIC (μg/mL) E. cloacae,Enterobacter cloacae; [4],25 µg/mL
same,MIC,E. coli DH5α,12.5 µg/mL
same,MIC (μg/mL) M. catarrhalis,Moraxella catarrhalis; [5],12.5 µg/mL
same,MIC (μg/mL) P. aeruginosa,Pseudomonas aeruginosa; [6],12.5 µg/mL
same,MIC (μg/mL) P. mirabilis,Proteus mirabilis; [7],50 µg/mL
same,MIC (μg/mL) C. diversus,Citrobacter diversus; [8],25 µg/mL
same,MIC (μg/mL) K. pneumonia,Klebsiella pneumonia; [9],12.5 µg/mL
same,MIC (μg/mL) A. hydrophila,Aeromonas hydrophila; [10],50 µg/mL
PRT1358 (SQLACPSDCNDQGKCVNGVCICFEGYAGADCS; listed as Homo sapiens),MIC against S. marcescens,Serratia marcescens; [13],12.5 µg/mL
same,MIC against P. vulgaris,Proteus vulgaris; [13],25 µg/mL
same,MIC against E. coli BL21,"E. coli BL21; E. coli BL21, 5×10^5 CFU/mL, 10 h cultivation at 37° C.",12.5 µg/mL
same,MIC against E. cloacae,Enterobacter cloacae; [13],12.5 µg/mL
same,MIC,E. coli DH5α,50 µg/mL
same,MIC against M. catarrhalis,Moraxella catarrhalis; [13],25 µg/mL
same,MIC against P. aeruginosa,Pseudomonas aeruginosa; [13],50 µg/mL
same,MIC against P. mirabilis,Proteus mirabilis; [13],12.5 µg/mL
same,MIC against C. diversus,Citrobacter diversus; [13],12.5 µg/mL
same,MIC against K. pneumonia,Klebsiella pneumonia; [13],12.5 µg/mL
same,MIC against A. hydrophila,Aeromonas hydrophila; [13],25 µg/mL
